Test results: patent US12329766B2, “Compounds, methods, and treatments for abnormal signaling pathways for prenatal and postnatal development” (priority 2006, dated 2025)

Columns and labels:
[1] = test system: Shh signaling; conditions: explants from mice at 13.5 days of gestation, six to eight days in culture; cited from earlier work
[2] = test system: hedgehog signaling; conditions: cultured neonatal mouse ovaries; cited from earlier work
[3] = Example 2: females at risk of fetal malformations, treatment from before conception through first trimester; format: in vivo; conditions: once daily from before conception through the end of the first trimester; relative to the untreated controls
Experimental: Females determined to be at risk of fetal malformations and who are seeking a further pregnancy are split into no treatment, folate treatment, D-chiroinositol treatment, and Folate+D-chiroinositol treatment arms. The respective regimens are administered once daily from before conception through the end of the first trimester. Relative to the untreated controls, the frequency of fetal malformations is reduced in each of the non-control arms.

[4] = taken before conception and during early pregnancy; cited from earlier work
[5] = China 1993 to 1995; 3.1 per 10,000 births for those not taking folic acid; cited from earlier work
[6] = test system: amyloid β deposits; conditions: in vivo; cited from earlier work
[7] = biological target: T1, PDK1 (Homo sapiens, UniProt O15530); conditions: phosphorylation of the PDK tide peptide substrate by PDK1; cited from earlier work
T1 sequence (O15530 1-556): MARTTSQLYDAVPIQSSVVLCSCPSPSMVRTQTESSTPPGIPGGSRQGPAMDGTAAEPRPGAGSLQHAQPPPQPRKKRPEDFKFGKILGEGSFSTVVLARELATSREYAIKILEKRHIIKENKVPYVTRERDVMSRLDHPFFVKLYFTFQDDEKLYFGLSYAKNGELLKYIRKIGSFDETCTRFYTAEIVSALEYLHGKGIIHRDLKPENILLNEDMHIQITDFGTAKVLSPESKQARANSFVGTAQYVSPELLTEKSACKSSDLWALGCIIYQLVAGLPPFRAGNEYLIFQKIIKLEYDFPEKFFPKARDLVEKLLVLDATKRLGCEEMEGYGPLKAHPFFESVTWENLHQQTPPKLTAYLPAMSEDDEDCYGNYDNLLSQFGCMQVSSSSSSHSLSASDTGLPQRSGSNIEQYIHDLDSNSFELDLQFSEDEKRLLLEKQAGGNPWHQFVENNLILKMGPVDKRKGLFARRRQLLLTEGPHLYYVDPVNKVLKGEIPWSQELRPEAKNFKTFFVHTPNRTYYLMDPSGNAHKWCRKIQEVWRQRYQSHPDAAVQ

[8] = Example 4: men on androgen ablative therapy, male breast cancer; format: in vivo; conditions: prior to and throughout androgen ablative therapy; compared to controls
Source text: Men preparing to initiate androgen ablative therapy are initiated on a course of D-chiroinositol prior to and throughout the treatment with the androgen ablative therapeutic.

[9] = test system: phosphatidyl inositol (PI3K) signaling pathway; test: Example 6: cultured curly tail mice embryos, PNP closure; conditions: embryos cultured from E9.5 to E10.5, in vitro
Experimental: To determine whether the downstream targets of the phosphatidyl inositol (PI3K) signaling pathway could be effected by an inhibitor, we can use […] to inhibit the effect of inositol on neural tube closure. The curly tail mice embryos are cultured from E9.5 to E10.5, and the length of unclosed neural folds at the pnp are measured to indicate predisposition to spina bifida. Embryos which are exposed to the kinase inhibitor alone have enlarged PNP's, reflecting the in vivo development of spinal NTD's by 50%-60% of curly tail embryos.

[10] = Example 7: fetal alcohol syndrome related defects in offspring of alcohol treated rats; format: in vivo; conditions: given before and during the alcohol treatment; versus inositol free alcohol treated group
Experimental: Female rats are administered alcohol for 2 weeks and then mated. The alcohol administration continues through out pregnancy and the rate of fetal alcohol syndrome related defects in the offspring are noted. A second set of rats from the same strain are mated without having the alcohol treatment as a control and the rate of defects of the same type as noted in the first arm are noted. […] A third arm of the study includes rats that are administered D-chiroinositol or a phosphorylate thereof before and during the alcohol treatment and are otherwise treated in the same manner as in the alcohol treatment above.

[11] = test system: curly tail model; conditions: cited from earlier work
[12] = biological target: T1, PDK1; conditions: cited from earlier work
[13] = test system: Colo357, BxPc3, or PancTuI tumors; design: reduction of metastasis / reduction of the number of liver metastases / reduction of volumes of recurrent tumors: concentration or dose not given beside the values; conditions: cited from earlier work; for reduction of the number of liver metastases / reduction of volumes of recurrent tumors: mouse, in vivo
[14] = test system: PDAC cells; conditions: in vitro; cited from earlier work
[15] = test system: Shh signaling; test: Example 5: curly tail mice embryos, spinal and genitourinary defects; format: in vivo; conditions: D-chiroinositol vs. myoinositol
Experimental: These embryos are exposed to the present invention compound D-chiroinositol vs. myoinositol and internal examination is conducted.

[16] = test system: MDA-MB 231 cells; conditions: cited from earlier work
[17] = test system: PKB; conditions: increasing extracellular Ins(1,3,4,5,6)P5; cited from earlier work
[18] = severe combined immunodeficient mice, orthotopic tumors

Compound: CC1=C2C[C@H]3[C@@H](CC=C4C[C@@H](O)CC[C@@]43C)[C@@H]2CC[C@]12O[C@@H]1C[C@H](C)CN[C@H]1[C@H]2C [cyclopamine]
- morphogenesis of vibrissa follicles [1]: striking inhibition of morphogenesis
- induced expression of hedgehog target genes Ptch1 and Gli1 [2]: inhibits this induced expression of target genes

Compound: Nc1nc(O)c2nc(CNc3ccc(C(=O)N[C@@H](CCC(=O)O)C(=O)O)cc3)cnc2n1 [folic acid]
- frequency of fetal malformations [3]: reduced
- reduction of the risk of the fetus developing a neural tube defect [4]: about 70%
- rate of imperforate anus [5]: 1.6 per 10,000 births

Compound: O[C@H]1[C@H](O)[C@@H](O)[C@H](O)[C@@H](O)[C@@H]1O [scyllo-inositol]
- efficacy in Alzheimer's disease (amyloid β deposits, cognitive ability) [6]: prevent the accumulation of amyloid β deposits and improved cognitive ability

Compound: O=P(O)(O)O[C@H]1[C@H](OP(=O)(O)O)[C@@H](OP(=O)(O)O)[C@H](OP(=O)(O)O)[C@@H](OP(=O)(O)O)[C@H]1OP(=O)(O)O [InsP6]
- direct inhibition of PDK1 catalytic activity [7]: did not directly inhibit

Compound: OC1C(O)C(O)C(O)C(O)C1O (stereo not drawn) [epi-inositol]
- efficacy in Alzheimer's disease (amyloid β deposits, cognitive ability) [6]: only worked at all when given before disease onset

Compound: O[C@H]1[C@H](O)[C@H](O)[C@@H](O)[C@@H](O)[C@H]1O [D-chiroinositol, D-chiro-inositol]
- frequency of fetal malformations [3]: reduced
- frequency of male breast cancer [8]: substantially reduced
- PNP closure [9]: normalizes PNP closure
- rate of fetal alcohol syndrome defects [10]: substantially less
- frequency of spina bifida ([11]; curly tail model, compound alone): reduced frequency of spina bifida in this model to a greater extent than myo-inositol alone

Compound: O=P(O)(O)O[C@@H]1[C@H](O)[C@H](O)[C@@H](OP(=O)(O)O)[C@H](OP(=O)(O)O)[C@H]1O [Ins(1,4,5)P3]
- binding to PDK1 [12]: could not be detected

Compound: infliximab: human-specific anti-TNF antibody
- reduction of the number of liver metastases [13]: 69%
- reduction of volumes of recurrent tumors [13]: 73%
- reduction of metastasis [13, 18]: ~50%
- reduction of tumor growth [13, 18]: about 30%
- effect on proliferation and invasiveness of PDAC cells [14]: only marginally affected

Compound: O[C@H]1[C@H](O)[C@@H](O)[C@H](O)[C@@H](O)[C@H]1O [myo-inositol]
- severity of spinal and genitourinary defects in embryos [15]: severe compared to those embryos treated with D-chiroinositol
- incidence of neural tube defects ([11]; mouse models that are folate resistant): reduced the incidence of neural tube defects
- efficacy in Alzheimer's disease (amyloid β deposits, cognitive ability) [6]: not to be effective

Compound: etanercept
- reduction of the number of liver metastases [13]: 42%
- reduction of volumes of recurrent tumors [13]: 51%
- effect on proliferation and invasiveness of PDAC cells [14]: only marginally affected

Compound: O=P(O)(O)O[C@H]1[C@H](OP(=O)(O)O)[C@@H](OP(=O)(O)O)[C@H](OP(=O)(O)O)[C@@H](OP(=O)(O)O)[C@H]1OP(=O)(O)O [myoinositol hexaphosphate]
- secretion of MMP-9 [16]: significantly inhibits

Compound: O=P(O)(O)OC1[C@@H](OP(=O)(O)O)[C@H](OP(=O)(O)O)C(O)[C@H](OP(=O)(O)O)[C@H]1OP(=O)(O)O (stereo partly shown) [Ins(1,3,4,5,6)P5]
- direct inhibition of PDK1 catalytic activity [7]: did not directly inhibit
- PKB activation in cells [17]: lowered PKB activation
